# Laboratory results as given in patent US20080096894A1, “Anti-Bacterial Compounds” (ASTON UNIVERSITY, priority 2005, published 2008).
# Where two headings read alike, the source gives them in different places.
# Experiments:
# Test in all cases: MIC, agar dilution, multipoint inoculator
# B. bronchiseptica = assay type: cell-based; settings: B. bronchiseptica NCTC 8344; upper value of MIC reading
# Method: (§1) This activity was measured using a multipoint inoculator method as follows. The MIC for each compound was measured using an agar dilution method (Onda, H., et al., Int. J. Antimicrob. Agents. 18, 263 (2001)) (Mueller Hinton agar) by means of a multipoint inoculator delivering 10^4 colony forming units per spot.
# MRSA = assay type: cell-based, methicillin-resistant Staphylococcus aureus
# Method: as §1
# ‘Staph’ refers to the reference strain of S. aureus (NCTC 6571). A tick in the MRSA column refers to a positive zone against MRSA strain 96-7474, and the MIC range (in μg/ml) which follows is that found against a panel of ten MRSA strains. Where MIC values are given for MRSA, these are stated as a range of values, as testing was carried out on a panel of clinical isolates.
# S. aureus = assay type: cell-based, Staphylococcus aureus; settings: upper value of MIC reading
# Method: as §1
# E. faecium = assay type: cell-based, Enterococcus faecium; settings: upper value of MIC reading
# Method: as §1
# S. epidemisis = assay type: cell-based, Staphylococcus epidermidis; settings: upper value of MIC reading
# Method: as §1
# E. faecalis = assay type: cell-based; settings: upper value of MIC reading
# Method: as §1
# S. maltophilia = assay type: cell-based; settings: S. maltophilia NCTC 10257, upper value of MIC reading
# Method: as §1
# S. haemolyticus = assay type: cell-based; settings: S. haemolyticus Isolate 1, upper value of MIC reading
# Method: as §1
# P. auriginosa = assay type: cell-based, Pseudomonas aeruginosa; settings: P. auriginosa NCTC 6749, upper value of MIC reading
# Method: as §1
# E. coli = assay type: cell-based, Escherichia coli; settings: Escherichia coli, 18 h, upper value of MIC reading
# Method: as §1
# S. marcesens = assay type: cell-based, Serratia marcescens; settings: S. marcesens 4444, upper value of MIC reading
# Method: as §1
# K. pneumoniae = assay type: cell-based, Klebsiella pneumoniae; settings: K. pneumoniae 327; upper value of MIC reading
# Method: as §1
# S. aboni = assay type: cell-based; settings: S. aboni NCTC 6017; upper value of MIC reading
# Method: as §1
# [1] = MRSA Isolate 5, upper value of MIC reading, in µg/mL
# [2] = Enterococcus faecalis, 18 h, E. faecalis Isolate 1, read-out: MIC
# [3] = Enterococcus faecalis, 18 h, E. faecalis Isolate 2, read-out: MIC
# [4] = Enterococcus faecalis, 18 h, E. faecalis Isolate 4, read-out: MIC
# [5] = Enterococcus faecalis, 18 h, E. faecalis Isolate 5, read-out: MIC
# [6] = Staphylococcus haemolyticus, 18 h, read-out: MIC
# [7] = Staphylococcus aureus, 18 h, MRSA Isolate 1, upper value of MIC reading, read-out: MIC
# [8] = Staphylococcus aureus, 18 h, MRSA Isolate 2, upper value of MIC reading, read-out: MIC
# [9] = Staphylococcus aureus, 18 h, MRSA Isolate 3, upper value of MIC reading, read-out: MIC
# [10] = Staphylococcus aureus, 18 h, MRSA Isolate 4, upper value of MIC reading, read-out: MIC
# [11] = Staphylococcus aureus, 18 h, MRSA Isolate 5, upper value of MIC reading, read-out: MIC
# [12] = Staphylococcus aureus, 18 h, MRSA Isolate 6, upper value of MIC reading, read-out: MIC
# [13] = Staphylococcus aureus, 18 h, MRSA Isolate 7, upper value of MIC reading, read-out: MIC
# [14] = Staphylococcus aureus, 18 h, MRSA Isolate 8, upper value of MIC reading, read-out: MIC
# [15] = Staphylococcus aureus, 18 h, MRSA Isolate 9, upper value of MIC reading, read-out: MIC
# [16] = Staphylococcus aureus, 18 h, MRSA Isolate 10, upper value of MIC reading, read-out: MIC
# [17] = Staphylococcus aureus, MRSA, 18 h, panel of ten MRSA strains (clinical isolates), read-out: MRSA MIC range
# [18] = Staphylococcus aureus, 18 h, S. aureus Cowan 1, read-out: MIC
# [19] = Staphylococcus aureus, NCTC6571, 18 h, S. aureus NCTC 6571, read-out: MIC
# [20] = Staphylococcus aureus, NCTC10788, 18 h, S. aureus NCTC 10788, read-out: MIC
# [21] = Enterococcus faecium, NCTC7171, 18 h, E. faecium NCTC 7171, read-out: MIC
# [22] = Staphylococcus epidermidis, 18 h, S. epidemisis Isolate 1, read-out: MIC
# [23] = Staphylococcus epidermidis, NCTC11047, 18 h, S. epidemisis NCTC 11047, read-out: MIC
# [24] = MRSA Isolate 1, upper value of MIC reading, in µg/mL
# [25] = MRSA Isolate 2, upper value of MIC reading, in µg/mL
# [26] = MRSA Isolate 3, upper value of MIC reading, in µg/mL
# [27] = MRSA Isolate 4, upper value of MIC reading, in µg/mL
# [28] = MRSA Isolate 10, upper value of MIC reading, in µg/mL
# [29] = panel of ten MRSA strains (clinical isolates)
smiles,measurement,setting,value
NC(=NN=Cc1ccc(O)c(O)c1O)c1ccccn1 [Compound 2PYcb],MIC,B. bronchiseptica,256 µg/mL
same,MIC,MRSA; [1],256
same,MIC,S. aureus; S. aureus Cowan 1,256 µg/mL
same,MIC,E. faecium; E. faecium NCTC 7171,256 µg/mL
same,MIC,S. epidemisis; S. epidemisis Isolate 1,256 µg/mL
"CCC(C)(C)c1ccc(/C=N/N=C(\N)c2cccnc2)cc1 [Compound 3PYaf, N^1-[4-(1,1-dimethylpropyl)benzylidene]-pyridine-3-carboxamidrazone]",MIC,"E. faecalis; Enterococcus faecalis, 18 h, E. faecalis EBH1, read-out: MIC",128 µg/mL
same,MIC,E. faecalis; [2],64 µg/mL
same,MIC,E. faecalis; [3],64 µg/mL
same,MIC,E. faecalis; [4],128 µg/mL
same,MIC,E. faecalis; [5],128 µg/mL
same,MIC,"E. faecalis; Enterococcus faecalis, NCTC5957, 18 h, E. faecalis NCTC 5957, read-out: MIC",64 µg/mL
same,MIC,"S. maltophilia; Stenotrophomonas maltophilia, NCTC10257, 18 h, read-out: MIC",64 µg/mL
same,MIC,S. haemolyticus; [6],64 µg/mL
same,MIC,MRSA; [7],64 µg/mL
same,MIC,MRSA; [8],64 µg/mL
same,MIC,MRSA; [9],64 µg/mL
same,MIC,MRSA; [10],64 µg/mL
same,MIC,MRSA; [11],64 µg/mL
same,MIC,MRSA; [12],64 µg/mL
same,MIC,MRSA; [13],64 µg/mL
same,MIC,MRSA; [14],64 µg/mL
same,MIC,MRSA; [15],64 µg/mL
same,MIC,MRSA; [16],64 µg/mL
same,MIC,MRSA; [17],32 to 64 µg/mL
same,MIC,S. aureus; [18],64 µg/mL
same,MIC,S. aureus; [19],64 µg/mL
same,MIC,S. aureus; [20],64 µg/mL
same,MIC,"P. auriginosa; Pseudomonas aeruginosa, NCTC6749, 18 h, read-out: MIC",64 µg/mL
same,MIC,E. coli; E. coli W3110R+,64 µg/mL
same,MIC,E. coli; E. coli W3110R−,64 µg/mL
same,MIC,"E. faecium; Enterococcus faecium, 18 h, E. faecium ACTCC 10541, read-out: MIC",64 µg/mL
same,MIC,E. faecium; [21],64 µg/mL
same,MIC,"S. marcesens; Serratia marcescens, 18 h, read-out: MIC",256 µg/mL
same,MIC,S. epidemisis; [22],128 µg/mL
same,MIC,S. epidemisis; [23],32 µg/mL
CCOc1ccccc1C=NN=C(N)c1cccnc1 [Compound 3PYay],MIC,E. faecalis; E. faecalis EBH1,128 µg/mL
same,MIC,E. faecalis; E. faecalis Isolate 1,128 µg/mL
same,MIC,E. faecalis; E. faecalis Isolate 2,128 µg/mL
same,MIC,E. faecalis; E. faecalis NCTC 5957,128 µg/mL
same,MIC,S. maltophilia,256 µg/mL
same,MIC,S. haemolyticus,256 µg/mL
same,MIC,MRSA; [24],256
same,MIC,MRSA; [25],128
same,MIC,MRSA; [26],128
same,MIC,MRSA; [27],128
same,MIC,MRSA; [1],128
same,MIC,MRSA; [28],256
same,MRSA MIC range,MRSA; [29],> 256 µg/mL
same,MIC,S. aureus; S. aureus NCTC 6571,> 256 µg/mL
same,MIC,K. pneumoniae,256 µg/mL
same,MIC,P. auriginosa,128 µg/mL
same,MIC,S. marcesens,256 µg/mL
same,MIC,S. epidemisis; S. epidemisis NCTC 11047,128 µg/mL
N/C(=N\N=C\c1c2ccccc2cc2ccccc12)c1ccncc1 [Compound 4PYam],MIC,E. faecalis; [2],256 µg/mL
same,MIC,E. faecalis; [3],256 µg/mL
same,MIC,E. faecalis; [4],256 µg/mL
same,MIC,E. faecalis; [5],256 µg/mL
same,MIC,S. aboni,32 µg/mL
same,MIC,S. haemolyticus; [6],256 µg/mL
same,MIC,MRSA; [7],32 µg/mL
same,MIC,MRSA; [8],64 µg/mL
same,MIC,MRSA; [9],64 µg/mL
same,MIC,MRSA; [10],32 µg/mL
same,MIC,MRSA; [11],32 µg/mL
same,MIC,MRSA; [12],32 µg/mL
same,MIC,MRSA; [13],64 µg/mL
same,MIC,MRSA; [14],64 µg/mL
same,MIC,MRSA; [15],32 µg/mL
same,MIC,MRSA; [16],32 µg/mL
same,MIC,MRSA; [17],16 to 64 µg/mL
same,MIC,S. aureus; [18],32 µg/mL
same,MIC,S. aureus; [19],32 µg/mL
same,MIC,S. aureus; [20],64 µg/mL
same,MIC,E. faecium; [21],256 µg/mL
same,MIC,S. epidemisis; [22],128 µg/mL
same,MIC,S. epidemisis; [23],256 µg/mL
NC(=NN=Cc1c(O)ccc2ccccc12)c1ccncc1 [Compound 4PYdb],MIC,E. faecalis; E. faecalis Isolate 2,256 µg/mL
same,MIC,E. faecalis; E. faecalis Isolate 3,256 µg/mL
same,MIC,S. maltophilia,128 µg/mL
same,MIC,S. haemolyticus,128 µg/mL
same,MIC,MRSA; [24],128
same,MIC,MRSA; [26],256
same,MIC,MRSA; [27],256
same,MIC,S. aureus; S. aureus Cowan 1,128 µg/mL
same,MIC,S. aureus; S. aureus NCTC 6571,> 256 µg/mL
same,MIC,S. epidemisis; S. epidemisis Isolate 1,128 µg/mL
same,MIC,S. epidemisis; S. epidemisis NCTC 11047,128 µg/mL
NC(=NN=Cc1cc(O)c(O)cc1O)c1ccc2ccccc2n1 [QNcc],MIC,E. faecalis; E. faecalis Isolate 2,256 µg/mL
same,MIC,E. faecalis; E. faecalis Isolate 3,256 µg/mL
same,MIC,B. bronchiseptica,256 µg/mL
same,MIC,MRSA; [24],256
same,MIC,S. aureus; S. aureus Cowan 1,256 µg/mL
same,MIC,S. aureus; S. aureus NCTC 6571,256 µg/mL
same,MIC,S. aureus; S. aureus NCTC 10788,256 µg/mL
CN(C)CCCOc1ccc(C=NN=C(N)c2ccc3ccccc3n2)cc1 [QNds],MIC,E. faecalis; E. faecalis EBH1,128 µg/mL
same,MIC,E. faecalis; E. faecalis Isolate 1,128 µg/mL
same,MIC,E. faecalis; E. faecalis Isolate 2,128 µg/mL
same,MIC,E. faecalis; E. faecalis Isolate 3,128 µg/mL
same,MIC,E. faecalis; E. faecalis Isolate 4,128 µg/mL
same,MIC,E. faecalis; E. faecalis Isolate 5,64 µg/mL
same,MIC,E. faecalis; E. faecalis NCTC 5957,64 µg/mL
same,MIC,S. maltophilia,256 µg/mL
same,MIC,S. haemolyticus,256 µg/mL
same,MIC,MRSA; [24],64
same,MIC,MRSA; [25],64
same,MIC,MRSA; [26],64
same,MIC,MRSA; [27],64
same,MIC,MRSA; [1],64
same,MIC,"MRSA; MRSA Isolate 6, upper value of MIC reading, in µg/mL",64
same,MIC,"MRSA; MRSA Isolate 7, upper value of MIC reading, in µg/mL",64
same,MIC,"MRSA; MRSA Isolate 8, upper value of MIC reading, in µg/mL",64
same,MIC,"MRSA; MRSA Isolate 9, upper value of MIC reading, in µg/mL",64
same,MIC,MRSA; [28],64
same,MRSA MIC range,MRSA; [29],32 to 128 µg/mL
same,MIC,S. aureus; S. aureus Cowan 1,128 µg/mL
same,MIC,S. aureus; S. aureus NCTC 6571,128 µg/mL
same,MIC,S. aureus; S. aureus NCTC 10788,128 µg/mL
same,MIC,E. faecium; E. faecium ACTCC 10541,128 µg/mL
same,MIC,E. faecium; E. faecium NCTC 7171,64 µg/mL
same,MIC,S. epidemisis; S. epidemisis Isolate 1,256 µg/mL
same,MIC,S. epidemisis; S. epidemisis NCTC 11047,256 µg/mL
